{
  "source": "patent US20160158381A1",
  "about": "“NOVEL NANOLIPOSOMES AND THEIR USE FOR THE TREATMENT OF AMYLOID PROTEIN DISEASES” (DEPARTMENT OF VETERANS AFFAIRS, TECHNOLOGY TRANSFER PROGRAM, priority 2013, published 2016)",
  "type_in_all_cases": "cell-based",
  "key": {"[1]": {"system": "human ex-vivo adipose arterioles exposed to LC", "test": "Arteriole vasoreactivity after LC exposure with or without NL", "settings": "LC+NL co-treated with L-NAME 5 mmol", "protocol": "9 male subjects (64±3 years old) without AL/diabetes/vascular disease undergoing routine abdominal surgery donated subcutaneous adipose tissue obtained by surgeons. Arterioles (˜[…]) were isolated, cannulated and pressurized (60 mmHg). Baseline/control vasoreactivity was performed following preconstriction with endothelin-1 (60% baseline diameter) and successive administration of acetylcholine (10-9-10-4M) to measure endothelium-dependent dilation and papaverine (10^-4M) to measure smooth-muscle dependent dilation (videomicrometer). After washing, vessels were exposed to LC (20 μg/mL, physiologic concentration of circulating LC in patients) with or without NL (1:10 LC:NL mass ratio) for 1 hour and a second vasoreactivity response performed. In additional arterioles, LC+NL were co-treated with L-NG-nitroarginine methyl ester (L-NAME, 5 mmol, Sigma-Aldrich).\nData is expressed as means±standard error of means. Baseline control and post-treatment dilator response were compared using paired Student's t-test. Overall acetylcholine dilator response was analyzed by deriving the log effective concentration 50% (log EC50) using nonlinear regression and variable slope and least squares fit. For group analyses, one-way or two way analysis of variance with Bonferroni post-test were utilized (GraphPad Prism 5.0, San Diego Calif.)."}, "[2]": {"system": "human abdominal subcutaneous adipose arterioles exposed to Aβ42", "test": "Arteriole vasoreactivity after Aβ42 exposure with or without nanoliposomes", "settings": "for dilator responses to acetylcholine and papaverine (endothelial function): Aβ42 2 μM with or without nanoliposomes (1:10 Aβ:NLPA mass ratio), one hour", "protocol": "Human abdominal subcutaneous arterioles were isolated from subjects without vascular disease, pressurized and constricted with endothelin-1. Baseline (control) dilation response was measured following acetylcholine (10_9-10-4M) and papaverine (10^-4M) exposure; after washing, arterioles were exposed to Aβ42 (2 μM)±nanoliposomes (NLPA, 70% cholesterol, 25% phosphatidylcholine, 5% phosphatidic acid, 1:10 Aβ:NLPA mass ratio) and dilator response was measured."}, "[3]": {"system": "Human umbilical vein endothelial cells (HUVECs)", "test": "Endothelial cell nitric oxide production (DAF-2 diacetate fluorescence)", "settings": "1 hour exposure, acetylcholine 10^-4M at 45 minutes", "protocol": "Human umbilical vein endothelial cells (HUVECs) were exposed to Aβ42±NLPA or control for 1-hour, acetylcholine (10^-4M) was administered at 45 minutes and nitric oxide (NO production) was measured using DAF-2 diacetate fluorescence (1 hour compared to baseline fluorescence)."}, "[4]": {"system": "human ex-vivo adipose arterioles exposed to soluble amyloid proteins (light chain)", "test": "Arteriole endothelial function after LC exposure with clusterin-incorporated nanoliposomes", "settings": "separate experiments; nanoliposomes of cholesterol and phosphatidylcholine; co-treatment with light chain", "from_the_text": "Nanoliposomes were composed of cholesterol, phosphatidylcholine and stearyl triphenylphosphonium (STTP) and clusterin was incorporated by noncovalent means."}},
  "note": "“Also recorded” adds a separate entry of the source.",
  "data": [
    {"compound": "COC(=O)[C@@H](N)CCCNC(=N)N[N+](=O)[O-]", "note": "[L-NAME, L-NG-nitroarginine methyl ester]", "values": [
      {"measurement": "effect of L-NAME on NL protective effect (dilator response)", "setting": "[1]", "value": "abolished NL protective effect; also recorded: Nanoliposome protective effect was reversed"}
    ]},
    {"compound": "Aβ42: Aβ42 peptide, one of the amyloid proteins involved in AD", "values": [
      {"measurement": "dilation to acetylcholine 10^−4M", "setting": "[2]; Aβ42 2 μM with or without NLPA, 1:10 Aβ:NLPA mass ratio", "value": "61.5±5.7", "unit": "%"},
      {"measurement": "dilator responses to acetylcholine and papaverine (endothelial function)", "setting": "[2]", "value": "caused endothelial dysfunction"},
      {"measurement": "dilator responses to acetylcholine and papaverine (endothelial function)", "setting": "[2]; listed as Aβ", "value": "reduced"},
      {"measurement": "NO production", "setting": "[3]", "value": "reduced endothelial cell NO gas production"},
      {"measurement": "NO production", "setting": "[3]; listed as Aβ", "value": "reduced"}
    ]},
    {"compound": "free clusterin: free clusterin without nanoliposome; clusterin is apolipoprotein J, a chaperone protein", "values": [
      {"measurement": "dilator response to acetylcholine versus baseline", "setting": "[4]", "value": "+3.1%"}
    ]}
  ]
}
